Experimental data: the OligoGym collection
After the bases stand the sugars from the 5' end (letter, count) and the backbone: PS all phosphorothioate, else s phosphorothioate and o phosphodiester by linkage. Methylation of C is not given here. e = 2'-O-(2-methoxyethyl) (MOE); k = constrained ethyl (cEt); d = 2'-deoxy (DNA); m = 2'-O-methyl

Target: HSD17B13
Details: ASO, HepaRG

AGTCTTAAACCTTCCC (sugars k3 d10 k3, PS)
target mRNA inhibition (0.02 µM): 0% | target mRNA inhibition (0.078 µM): 0% | target mRNA inhibition (0.313 µM): 21% | target mRNA inhibition (1 µM): 77% | target mRNA inhibition (1.25 µM): 65% | target mRNA inhibition (5 µM): 85%

AGTCUTAAACCTTCCC (sugars k3 d1 m1 d8 k3, PS)
target mRNA inhibition (1 µM): 52%

AGTGCATCTTAAGATA (sugars kkdddddddddkekek, PS)
target mRNA inhibition (1 µM): 27%

AGTTAGTATAGTTATC (sugars k3 d1 m1 d8 k3, PS)
target mRNA inhibition (1 µM): 42%

AGTTATTCTCTTGACA (sugars k3 d10 k3, PS)
target mRNA inhibition (1 µM): 48%

AGTTCTGATGTCAGAC (sugars k3 d10 k3, PS)
target mRNA inhibition (1 µM): 40%

AGTTGCACCGTTTTGG (sugars k3 d1 m1 d8 k3, PS)
target mRNA inhibition (1 µM): 38%

AGTTGCACCGTTTTGG (sugars k3 d9 k3 e1, PS)
target mRNA inhibition (1 µM): 43%

AGTTGCACCGTTTTGG (sugars k3 d10 k3, PS)
target mRNA inhibition (1 µM): 55%

AGTTGCACCGTTTTGG (sugars kkdddddddddkekek, PS)
target mRNA inhibition (1 µM): 41%

ATAAAAATTGGCCTCC (sugars k3 d10 k3, PS)
target mRNA inhibition (1 µM): 41%

ATAAACATAGGCTTAG (sugars k3 d10 k3, PS)
target mRNA inhibition (1 µM): 41%

ATAACTACAAGAGGTT (sugars k3 d1 m1 d8 k3, PS)
target mRNA inhibition (1 µM): 61%

ATAACTACAAGAGGTT (sugars kkdddddddddkekek, PS)
target mRNA inhibition (1 µM): 46%

ATAACTACATGACCTG (sugars k3 d10 k3, PS)
target mRNA inhibition (1 µM): 29%

ATAAGAAGAGAGCTCA (sugars k3 d10 k3, PS)
target mRNA inhibition (1 µM): 14%

ATAAGTAGATGGTAAG (sugars k3 d10 k3, PS)
target mRNA inhibition (1 µM): 58%

ATAATAGCTCTATTGG (sugars k3 d10 k3, PS)
target mRNA inhibition (1 µM): 46%

ATACATCAACTCCTCT (sugars k3 d10 k3, PS)
target mRNA inhibition (0.02 µM): 0% | target mRNA inhibition (0.078 µM): 9% | target mRNA inhibition (0.313 µM): 26% | target mRNA inhibition (1 µM): 64% | target mRNA inhibition (1.25 µM): 63% | target mRNA inhibition (5 µM): 83%

ATACATTAGCAAGCTA (sugars k3 d9 k3 e1, PS)
target mRNA inhibition (1 µM): 48%

ATACATTAGCAAGCTA (sugars kkdddddddddkekek, PS)
target mRNA inhibition (1 µM): 22%

ATACTATTCTCCAACT (sugars k3 d10 k3, PS)
target mRNA inhibition (1 µM): 25%

ATAGAGTCGGTCACCT (sugars k3 d1 m1 d8 k3, PS)
target mRNA inhibition (1 µM): 50%

ATAGAGTCGGTCACCT (sugars k3 d9 k3 e1, PS)
target mRNA inhibition (1 µM): 67%

ATAGGACATGGAGACA (sugars k3 d10 k3, PS)
target mRNA inhibition (0.02 µM): 14% | target mRNA inhibition (0.078 µM): 18% | target mRNA inhibition (0.313 µM): 48% | target mRNA inhibition (1 µM): 82% | target mRNA inhibition (1.25 µM): 74% | target mRNA inhibition (5 µM): 79%

ATAGGCAGTAAAGTGC (sugars k3 d10 k3, PS)
target mRNA inhibition (1 µM): 56%

ATAGGGAGACCATGCT (sugars k3 d10 k3, PS)
target mRNA inhibition (1 µM): 64%

ATAGTAATTGCTATAG (sugars k3 d10 k3, PS)
target mRNA inhibition (1 µM): 36%

ATAGTCCATGCAAAAG (sugars kkdddddddddkekek, PS)
target mRNA inhibition (1 µM): 31%

ATATACAGACTAAGGG (sugars k3 d10 k3, PS)
target mRNA inhibition (1 µM): 24%

ATATAGCCCTTTCCCC (sugars k3 d10 k3, PS)
target mRNA inhibition (1 µM): 26%

ATATCAATGCCTTAGC (sugars k3 d10 k3, PS)
target mRNA inhibition (1 µM): 32%

ATATGTCCAGGTTGAG (sugars k3 d10 k3, PS)
target mRNA inhibition (1 µM): 61%

ATATUCTGTGGCATGG (sugars k3 d1 m1 d8 k3, PS)
target mRNA inhibition (1 µM): 63%

ATCAATTTATCATACC (sugars k3 d10 k3, PS)
target mRNA inhibition (1 µM): 11%

ATCAGACTTCTTACGA (sugars k3 d10 k3, PS)
target mRNA inhibition (1 µM): 45%

ATCATATGCTAAGTGC (sugars k3 d10 k3, PS)
target mRNA inhibition (0.02 µM): 0% | target mRNA inhibition (0.078 µM): 11% | target mRNA inhibition (0.313 µM): 48% | target mRNA inhibition (1 µM): 73% | target mRNA inhibition (1.25 µM): 71% | target mRNA inhibition (5 µM): 82%

ATCCCACAGAACCAAT (sugars k3 d10 k3, PS)
target mRNA inhibition (1 µM): 34%

ATCCCCTAAGTTATTA (sugars k3 d10 k3, PS)
target mRNA inhibition (1 µM): 13%

ATCCTTGGTGCTGAGA (sugars k3 d10 k3, PS)
target mRNA inhibition (1 µM): 13%

ATCTAACTAACCTGAC (sugars k3 d10 k3, PS)
target mRNA inhibition (1 µM): 0%

ATCTATCATGCCTTCC (sugars k3 d10 k3, PS)
target mRNA inhibition (1 µM): 6%

ATCTCACAAGGGAAAT (sugars k3 d10 k3, PS)
target mRNA inhibition (1 µM): 73%

ATCTCTGGGACCAAGG (sugars k3 d10 k3, PS)
target mRNA inhibition (0.02 µM): 0% | target mRNA inhibition (0.078 µM): 0% | target mRNA inhibition (0.313 µM): 57% | target mRNA inhibition (1 µM): 72% | target mRNA inhibition (1.25 µM): 78% | target mRNA inhibition (5 µM): 93%

ATCTCTTAGCTGTGCA (sugars k3 d10 k3, PS)
target mRNA inhibition (1 µM): 63%

ATCTGTCTCCAATACA (sugars k3 d10 k3, PS)
target mRNA inhibition (1 µM): 55%

ATCTTAAGATACCCAG (sugars k3 d10 k3, PS)
target mRNA inhibition (1 µM): 70%

ATCTTAAGATACCCAG (sugars kkdddddddddkekek, PS)
target mRNA inhibition (1 µM): 45%

ATCTUAAGATACCCAG (sugars k3 d1 m1 d8 k3, PS)
target mRNA inhibition (1 µM): 55%

ATGAAGTTAGTATAGT (sugars kkdddddddddkekek, PS)
target mRNA inhibition (1 µM): 34%

ATGAGTAGGCAACTGA (sugars k3 d10 k3, PS)
target mRNA inhibition (1 µM): 61%

ATGATAATTTGGTGTC (sugars k3 d10 k3, PS)
target mRNA inhibition (1 µM): 55%

ATGCATTAAAACTCTC (sugars k3 d10 k3, PS)
target mRNA inhibition (1 µM): 12%

ATGCTACTTGAACAGT (sugars kkdddddddddkekek, PS)
target mRNA inhibition (1 µM): 54%

ATGCUACTTGAACAGT (sugars k3 d1 m1 d8 k3, PS)
target mRNA inhibition (1 µM): 46%

ATGGCTACAGATTGGA (sugars k3 d1 m1 d8 k3, PS)
target mRNA inhibition (1 µM): 44%

ATGGTAAGCCCCATGC (sugars k3 d10 k3, PS)
target mRNA inhibition (1 µM): 22%

ATGTAATAGCCAGTAC (sugars k3 d10 k3, PS)
target mRNA inhibition (1 µM): 52%

ATGTAGTGTTTACAAG (sugars k3 d10 k3, PS)
target mRNA inhibition (1 µM): 58%

ATGTATCTTATAAGAC (sugars k3 d1 m1 d8 k3, PS)
target mRNA inhibition (1 µM): 3%

ATGTATCTTATAAGAC (sugars k3 d10 k3, PS)
target mRNA inhibition (1 µM): 0%

ATGTCCTAGGATGTTG (sugars k3 d10 k3, PS)
target mRNA inhibition (1 µM): 50%

ATGTGAAGAGCTGGTA (sugars kkdddddddddkekek, PS)
target mRNA inhibition (1 µM): 54%

ATGTTATCTCAAGTCA (sugars k3 d10 k3, PS)
target mRNA inhibition (1 µM): 79%

ATGTTTATGTAAGCAC (sugars k3 d9 k3 e1, PS)
target mRNA inhibition (0.02 µM): 6% | target mRNA inhibition (0.078 µM): 0% | target mRNA inhibition (0.313 µM): 39% | target mRNA inhibition (1 µM): 73% | target mRNA inhibition (1.25 µM): 66% | target mRNA inhibition (5 µM): 70%

ATGTUTATGTAAGCAC (sugars k3 d1 m1 d8 k3, PS)
target mRNA inhibition (1 µM): 45%

ATTAAGCAGAATTGTG (sugars k3 d10 k3, PS)
target mRNA inhibition (1 µM): 8%

ATTACATATCAATGCC (sugars k3 d10 k3, PS)
target mRNA inhibition (1 µM): 36%

ATTAGAAGTCAGCCCA (sugars k3 d10 k3, PS)
target mRNA inhibition (1 µM): 42%

ATTATATGAGGTCTGT (sugars k3 d10 k3, PS)
target mRNA inhibition (1 µM): 59%

ATTATGAGGATCTGGA (sugars k3 d10 k3, PS)
target mRNA inhibition (1 µM): 49%

ATTATGTGATTGAGTT (sugars k3 d10 k3, PS)
target mRNA inhibition (1 µM): 46%

ATTCACCACGATTGTT (sugars k3 d10 k3, PS)
target mRNA inhibition (1 µM): 0%

ATTCGAAACTATTCAT (sugars k3 d10 k3, PS)
target mRNA inhibition (1 µM): 24%

ATTCGAATTTCTTCAA (sugars k3 d10 k3, PS)
target mRNA inhibition (1 µM): 65%

ATTCTGTGGCATGGCT (sugars k3 d9 k3 e1, PS)
target mRNA inhibition (1 µM): 68%

ATTCTGTGGCATGGCT (sugars kkdddddddddkekek, PS)
target mRNA inhibition (1 µM): 55%

ATTGATATACGATGGA (sugars k3 d10 k3, PS)
target mRNA inhibition (1 µM): 31%

ATTGCAGTTATTAGAA (sugars k3 d10 k3, PS)
target mRNA inhibition (1 µM): 42%

ATTGGTAAGTATTCCA (sugars k3 d10 k3, PS)
target mRNA inhibition (1 µM): 50%

ATTGTCTAAACATCTC (sugars k3 d9 k3 e1, PS)
target mRNA inhibition (1 µM): 71%

ATTGTTAGCTAAGGGA (sugars k3 d10 k3, PS)
target mRNA inhibition (1 µM): 22%

ATTGTTTAGCTGATAG (sugars k3 d10 k3, PS)
target mRNA inhibition (1 µM): 61%

ATTTAGAATACGCTGA (sugars k3 d10 k3, PS)
target mRNA inhibition (1 µM): 19%

ATTTATTGGTATGGTA (sugars k3 d10 k3, PS)
target mRNA inhibition (1 µM): 46%

ATTTATTTGCTGGTCC (sugars k3 d10 k3, PS)
target mRNA inhibition (1 µM): 47%

ATTTTACTGGGATACT (sugars k3 d10 k3, PS)
target mRNA inhibition (1 µM): 49%

ATTTTTAATACGACTT (sugars k3 d10 k3, PS)
target mRNA inhibition (1 µM): 35%

CAAAAGACTTTGAGAC (sugars k3 d1 m1 d8 k3, PS)
target mRNA inhibition (1 µM): 25%

CAAAAGTGTCCTCGAT (sugars k3 d10 k3, PS)
target mRNA inhibition (1 µM): 5%

CAAACTGCTACTGTGT (sugars k3 d10 k3, PS)
target mRNA inhibition (1 µM): 57%

CAACGACTCCAAGTAG (sugars k3 d10 k3, PS)
target mRNA inhibition (1 µM): 0%

CAACTTTTAGTCAGGT (sugars k3 d10 k3, PS)
target mRNA inhibition (1 µM): 66%

CAAGAGGATAGTCCAT (sugars k3 d9 k3 e1, PS)
target mRNA inhibition (1 µM): 64%

CAAGGGAACACTGTCA (sugars k3 d10 k3, PS)
target mRNA inhibition (1 µM): 58%

CAAGTAGGAGTAGATG (sugars k3 d10 k3, PS)
target mRNA inhibition (1 µM): 5%

CAAGTTTTCACCTCAG (sugars k3 d10 k3, PS)
target mRNA inhibition (0.02 µM): 17% | target mRNA inhibition (0.078 µM): 41% | target mRNA inhibition (0.313 µM): 75% | target mRNA inhibition (1 µM): 93% | target mRNA inhibition (1.25 µM): 92% | target mRNA inhibition (5 µM): 95%
